The text below walks through data of patent US20050244413A1, “Compositions and methods for treating cancer using cytotoxic CD44 antibody immunoconjugates and chemotherapeutic agents” (priority 2002, published 2005).

pKd: −log10 of the molar value.

For test [1], the system named is antigen-positive FaDu cells. Kind of test: In vitro binding to FaDu cells (FACS). The conditions noted are these: 1 hour on ice, FITC-labeled anti-human IgG, read-out: apparent KD. As for the experimental part:
The binding of BIWA 4 antibody and BIWI 1 conjugate to antigen-positive FaDu cells was determined. Cells ([…]) were incubated in 96-well plates with varying concentrations of antibody or conjugate on ice for 1 hour. The test article was washed from the plate and FITC-labeled anti-human IgG was added and the incubation on ice was continued in the dark for 1 hour. After washing, the cells were fixed with 1% paraformaldehyde and analyzed on a fluorescence activated cell sorter (FACS).

The next test relates to FaDu tumors. Kind of test: BIWI 1 monotherapy in FaDu xenografted nude mice. The conditions noted are these: five consecutive days. The format is in vivo, mouse. As to the method:
In vivo anti-tumor efficacy of BIWI 1 was tested in three nude mouse xenograft models applying antigen-positive human tumors: A431 (ATCC # CRL 1555; epidermoid carcinoma of the vulva), FaDu (ATCC # HTB 43; squamous cell carcinoma of the pharynx), and MDA-MB 453 (ATCC # HTB-131; breast carcinoma). The cells were received from ATCC and cultured in RPMI1640 medium containing 10% fetal calf serum and supplements. 1×10^6 tumors cells were transplanted subcutaneously into the right flank of 6 week old female NMRI-nu/nu mice. Tumor growth was monitored by measuring tumor size. A tumor response was rated as complete response when the tumor completely disappeared at any time after start of treatment. The response was rated as partial response when the tumor volume decreased after treatment but thereafter started regrowing. The tolerability of the treatment was monitored by measuring mouse weight during the observation period.
Mice were randomised into the following treatment groups (treatment/initial mean tumor volume/tumor volume range/number of mice): • Group 1: Control (PBS)/142±82 mm^3/34-268 mm^3 /8 mice. • Group 2: BIWA 4 (21 mg/kg/d)/134±86 mm^3/42-268 mm^3/6 mice. • Group 3: BIWI 1 (2.1 mg/kg/d) 149±96 mm^3/50-268 mm^3/6 mice. • Group 4: BIWI 1 (7 mg/kg/d)/132±97 mm^3 42-268 mm^3/6 mice. • Group 5: BIWI 1 (21 mg/kg/d)/129±74 mm^3/50-231 mm^3/6 mice.
Groups of 6 mice were treated with 2.1 mg/kg/d BIWI 1, 7 mg/kg/d BIWI 1, 21 mg/kg/d BIWI 1, and 21 mg/kg/d control antibody, respectively. Treatment consisted of i.v. injections of BIWI 1 given on five consecutive days, starting at day 1. […] The remaining 2 tumors grew similar to untreated control tumors.

The test system of test [2] is antigen-negative cell line A549. Kind of test: In vitro cytotoxicity, MTS/PMS cell proliferation assay, A549. Conditions: A549 cells, highest concentration of BIWI 1 tested (5×1 0-7 M), 4 days. The format is cell-based. As to the method:
For determination of viable cells the Cell Titer 96® AQueous non-radioactive cell proliferation assay (Promega) was used. Five thousand cells per well were seeded into 96-well plates in 90 μl medium without phenole red. Cells were allowed to settle down for 1 to 3 h and then serial dilutions of the immunoconjugate in 10 μl PBS were added. Cells without immunoconjugate served as negative control. Cells were incubated for 4 days at 37° C. in a humified 5% CO2 atmosphere and then 20 μl MTS/PMS were added according to the manufacturer's recommendation. After additional 1 to 4 h incubation at 37° C. the absorbance at 490 nm was recorded using an ELISA plate reader. For each cell line triplicates were analyzed. The percentage of the surviving cell fraction and the IC50 value were calculated using the GraphPad Prism® (Version 3.0) software.
The in vitro cytotoxicity of BIWI 1 was evaluated using the antigen-positive cell lines A431 and FaDu, and the antigen-negative cell line […]. Cells were exposed to different concentrations of BIWI 1 for 4 days, then stained with MTS/PMS and assayed on an ELISA plate reader. The surviving fractions of cells were then calculated using the GraphPad Prism® software package.

The subject of test [3] is breast carcinoma xenografts. Kind of test: BIWI 1 (five daily doses) combination with paclitaxel in human breast carcinoma xenograft model. Format: in vivo, mouse. As for the experimental part:
BIWI was given i.v. into the tail vein at doses of 50 μg DM1/kg/day or 100 μg DM1/kg/day for five consecutive days. Paclitaxel (Taxol®) was given i.v. at 20 or 10 mg/kg, doxorubicin (Adriamycin®) at 6 or 4 mg/kg only on the first day of the treatment period, in each case 4 hours after BIWI 1 treatment. In mice bearing breast carcinoma xenografts with a volume of approximately 100 mm3.

With BIWI 1, in test [1], the pKd was 8.74. For the same substance, the “tumor volume doubling time” value in the test with FaDu tumors (2.1 mg/kg/d BIWI 1 i.v.) is “approximately 5 days”. In the test on FaDu tumors (7 mg/kg/d BIWI 1 i.v.), the complete responses was 1/6 and the partial responses was 3/6. Further, in the test on FaDu tumors (21 mg/kg/d BIWI 1 i.v.), the “day on which tumors disappeared” value was roughly 24 days, the “tumor regrowth until end of observation period (day 107)” value is listed as “No tumor regrowth” and the tumor response entry is on record as “all tumors responded completely”. The substance further had a surviving fraction in test [2] of 50%. In test [3] (BIWI 1 monotherapy 50 μg DM1/kg/day i.v., five consecutive days), the complete tumor regressions is on record as 2/12. The “T/C (median relative tumor volumes of treated versus control groups)” value in test [3] (BIWI 1 monotherapy 50 μg DM1/kg/day x5) was found to be 19%. For the same substance, in test [3] (BIWI 1 monotherapy 100 μg DM1/kg/day i.v., five consecutive days, tumors approx. 100 mm3), the Complete Regression was 12/12.
